Experimental data: patent publication US12077503B2, “Substituted cyclic amides and their use as herbicides” (FMC CORPORATION, priority 2015, dated 2024)

How the values were obtained:
Type in all cases: in vivo
[1] = test system: sedge, umbrella (small-flower umbrella sedge, Cyperus difformis); assay: Test B flooded paddy test; conditions: Flood, 250 g ai/ha; 0 to 100 scale where 0 is no effect and 100 is complete control; 13 to 15 d
Procedure, shortened: (§1)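 Response scored visually against untreated controls, 0 = no effect and 100 = complete control, 13–15 d after treatment in the greenhouse. Compounds added to paddy water held 3 cm above soil surface. Treatment given at 2-leaf stage.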

[2] = test system: barnyardgrass (Echinochloa crus-galli); assay: Test B flooded paddy test; conditions: Flood, 250 g ai/ha; 0 to 100 scale where 0 is no effect and 100 is complete control; 13 to 15 d
Procedure, shortened: as §1

[3] = test system: ducksalad (Heteranthera limosa); assay: Test B flooded paddy test; conditions: Flood, 250 g ai/ha; 0 to 100 scale where 0 is no effect and 100 is complete control; 13 to 15 d
Procedure, shortened: as §1

rice (Oryra sativa) = assay: Test B flooded paddy test; conditions: Flood, 250 g ai/ha; 0 to 100 scale where 0 is no effect and 100 is complete control; 13 to 15 d
Procedure, shortened: as §1

[4] = test system: barnyardgrass (Echinochloa crus-galli); assay: Test A preemergence; conditions: for Plant response rating, Barnyardgrass: 125 g ai/ha; for Barnyardgrass plant response rating (0 to 100 scale, 0 is no effect, 100 is complete control): visual injury approx. 10 d
Procedure, shortened: (§2)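 Each rating is a visual injury score from 0 to 100 given about 10 d after treatment, judged against untreated controls kept alongside in the greenhouse. In loam soil–sand blend, seeds got a preemergence directed soil spray, while postemergence plants were 2 to 10 cm tall at spraying.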

[5] = test system: ryegrass, Italian (Italian ryegrass, Lolium multiflorum); assay: Test A preemergence; conditions: for Plant response rating, Ryegrass, Italian: 125 g ai/ha; for Ryegrass, Italian plant response rating (0 to 100 scale, 0 is no effect, 100 is complete control): visual injury approx. 10 d
Procedure, shortened: as §2

[6] = test system: giant foxtail (Setaria faberii); assay: Test A preemergence; conditions: for Plant response rating, Foxtail, Giant: 125 g ai/ha; for Foxtail, Giant plant response rating (0 to 100 scale, 0 is no effect, 100 is complete control): visual injury approx. 10 d
Procedure, shortened: as §2

Kochia (Kochia scoparia) [7] = assay: Test A preemergence; conditions: for Plant response rating, Kochia: 125 g ai/ha; for Kochia plant response rating (0 to 100 scale, 0 is no effect, 100 is complete control): visual injury approx. 10 d
Procedure, shortened: as §2

[8] = test system: pigweed (Amaranthus retroflexus); assay: Test A preemergence; conditions: for Plant response rating, Pigweed: 125 g ai/ha; for Pigweed plant response rating (0 to 100 scale, 0 is no effect, 100 is complete control): visual injury approx. 10 d
[9] = test system: ragweed (common ragweed, Ambrosia elatior); assay: Test A preemergence; conditions: for Plant response rating, Ragweed: 125 g ai/ha; for Ragweed plant response rating (0 to 100 scale, 0 is no effect, 100 is complete control): visual injury approx. 10 d
Procedure, shortened: as §2

[10] = test system: barnyardgrass (Echinochloa crus-galli); assay: Test A postemergence
Procedure, shortened: as §2

[11] = test system: ryegrass, Italian (Italian ryegrass, Lolium multiflorum); assay: Test A postemergence
Procedure, shortened: as §2

[12] = test system: giant foxtail (Setaria faberii); assay: Test A postemergence
Procedure, shortened: as §2

Kochia (Kochia scoparia) [13] = assay: Test A postemergence
Procedure, shortened: as §2

corn (Zea mays) = assay: Test A postemergence
Procedure, shortened: as §2

[14] = test system: blackgrass (Alopecurus myosuroides); assay: Test A postemergence
Procedure, shortened: as §2

[15] = test system: wheat (Triticum aestivum); assay: Test A postemergence
Procedure, shortened: as §2

[16] = test system: pigweed (Amaranthus retroflexus); assay: Test A postemergence
Procedure, shortened: as §2

[17] = test system: Galium (catchweed bedstraw, Galium aparine); assay: Test A postemergence
Procedure, shortened: as §2

[18] = test system: ragweed (common ragweed, Ambrosia elatior); assay: Test A postemergence
Procedure, shortened: as §2

[19] = preemergence, 0 to 100 scale (0 no effect, 100 complete control)
[20] = Preemergence, 500 g ai/ha, 0 is no effect, 100 is complete control
[21] = 500 g ai/ha, postemergence, 0 to 100 scale, 0 no effect, 100 complete control
[22] = Postemergence, 125 g ai/ha, visual injury, 0 to 100 scale (0 no effect, 100 complete control), approx. 10 d
[23] = Preemergence, visual injury after approximately 10 d, 0 to 100 scale where 0 is no effect and 100 is complete control
[24] = 125 g ai/ha, postemergence, visual injury rating on 0 to 100 scale (0 no effect, 100 complete control), approx. 10 d
[25] = Postemergence, 500 g ai/ha, 0 to 100 scale where 0 is no effect and 100 is complete control
[26] = 125 g ai/ha, postemergence, visual rating after approx. 10 d, 0 to 100 scale (0 no effect, 100 complete control)

O=C1NCC(c2ccccc2-c2ccccc2)C1C(=O)Nc1cccc(F)c1F (racemic) [Compound 379]
Plant response rating, Sedge, Umbrella [1]: 0
Plant response rating, Barnyardgrass [2]: 0
Plant response rating, Ducksalad [3]: 0
Plant response rating, Rice (rice (Oryra sativa)): 0
Plant response rating, Barnyardgrass [4, 19]: 0
Barnyardgrass plant response rating (0 to 100 scale) [4, 20]: 30
Plant response rating, Ryegrass, Italian [5, 19]: 0
Ryegrass, Italian plant response rating (0 to 100 scale) [5, 20]: 0
Plant response rating, Foxtail, Giant [6, 19]: 0
Foxtail, Giant plant response rating (0 to 100 scale) [6, 20]: 40
Plant response rating, Kochia (Kochia (Kochia scoparia) [7]; [19]): 0
Kochia plant response rating (0 to 100 scale) (Kochia (Kochia scoparia) [7]; [20]): 0
Plant response rating, Pigweed [8, 19]: 0
Pigweed plant response rating (0 to 100 scale) [8, 20]: 0
Plant response rating, Ragweed [9, 19]: 0
Ragweed plant response rating (0 to 100 scale) [9, 20]: 0
Plant response rating, Barnyardgrass [10, 21]: 50
Plant response rating, Barnyardgrass [10, 22]: 0
Plant response rating, Ryegrass, Italian [11, 21]: 0
Plant response rating, Ryegrass, Italian [11, 22]: 0
Plant response rating, Foxtail, Giant [12, 21]: 20
Plant response rating, Foxtail, Giant [12, 22]: 0
Plant response rating, Kochia (Kochia (Kochia scoparia) [13]; [21]): 0
Plant response rating, Kochia (Kochia (Kochia scoparia) [13]; [22]): 0
Plant response rating, Corn (corn (Zea mays); [21]): 0
Plant response rating, Corn (corn (Zea mays); [22]): 0
Plant response rating, Blackgrass [14, 21]: 0
Plant response rating, Blackgrass [14, 22]: 0
Plant response rating, Wheat [15, 21]: 0
Plant response rating, Wheat [15, 22]: 0
Plant response rating, Pigweed [16, 21]: 0
Plant response rating, Pigweed [16, 22]: 0
Plant response rating, Galium [17, 21]: 0
Plant response rating, Galium [17, 22]: 0
Plant response rating, Ragweed [18, 21]: 0
Plant response rating, Ragweed [18, 22]: 0

CCc1ccc(C2CNC(=O)C2C(=O)Nc2ccccc2S(C)(=O)=O)cc1 (stereo not drawn) [Compound 468]
Plant response rating, Sedge, Umbrella [1]: 0
Plant response rating, Barnyardgrass [2]: 35
Plant response rating, Ducksalad [3]: 85
Plant response rating, Rice (rice (Oryra sativa)): 0
Plant response rating, Barnyardgrass [4, 19]: 0
Barnyardgrass plant response rating (0 to 100 scale, 0 is no effect, 100 is complete control) ([4]; Preemergence, 500 g ai/ha): 20
Plant response rating, Ryegrass, Italian [5, 23]: 0
Ryegrass, Italian plant response rating (0 to 100 scale, 0 is no effect, 100 is complete control) ([5]; Preemergence, 500 g ai/ha): 0
Plant response rating, Foxtail, Giant [6, 19]: 0
Foxtail, Giant plant response rating (0 to 100 scale, 0 is no effect, 100 is complete control) ([6]; Preemergence, 500 g ai/ha): 80
Plant response rating, Kochia (Kochia (Kochia scoparia) [7]; [19]): 40
Kochia plant response rating (0 to 100 scale, 0 is no effect, 100 is complete control) (Kochia (Kochia scoparia) [7]; Preemergence, 500 g ai/ha): 80
Plant response rating, Pigweed [8, 23]: 0
Pigweed plant response rating (0 to 100 scale, 0 is no effect, 100 is complete control) ([8]; Preemergence, 500 g ai/ha): 50
Plant response rating, Ragweed [9, 23]: 0
Ragweed plant response rating (0 to 100 scale, 0 is no effect, 100 is complete control) ([9]; Preemergence, 500 g ai/ha): 70
Barnyardgrass plant response rating [10, 24]: 0
Plant response rating, Barnyardgrass [10, 21]: 30
Ryegrass, Italian plant response rating [11, 24]: 0
Plant response rating, Ryegrass, Italian [11, 25]: 0
Foxtail, Giant plant response rating [12, 24]: 0
Plant response rating, Foxtail, Giant [12, 25]: 0
Kochia plant response rating (Kochia (Kochia scoparia) [13]; [24]): 0
Plant response rating, Kochia (Kochia (Kochia scoparia) [13]; [25]): 20
Corn plant response rating (corn (Zea mays); [24]): 0
Plant response rating, Corn (corn (Zea mays); [21]): 0
Blackgrass plant response rating [14, 24]: 0
Plant response rating, Blackgrass [14, 21]: 20
Wheat plant response rating [15, 24]: 0
Plant response rating, Wheat [15, 25]: 20
Pigweed plant response rating [16, 24]: 0
Plant response rating, Pigweed [16, 25]: 0
Galium plant response rating [17, 24]: 20
Plant response rating, Galium [17, 25]: 30
Ragweed plant response rating [18, 24]: 0
Plant response rating, Ragweed [18, 25]: 0

O=C1NCC(c2ccsc2Br)C1C(=O)Nc1cccc(F)c1F (stereo not drawn) [Compound 598]
Plant response rating, Sedge, Umbrella [1]: 0
Plant response rating, Barnyardgrass [2]: 0
Plant response rating, Ducksalad [3]: 65
Plant response rating, Rice (rice (Oryra sativa)): 0
Plant response rating, Barnyardgrass [4, 23]: 0
Barnyardgrass plant response rating (0 to 100 scale, 0 is no effect, 100 is complete control) ([4]; Preemergence, 500 g ai/ha): 60
Plant response rating, Ryegrass, Italian [5, 23]: 0
Ryegrass, Italian plant response rating (0 to 100 scale, 0 is no effect, 100 is complete control) ([5]; Preemergence, 500 g ai/ha): 20
Plant response rating, Foxtail, Giant [6, 23]: 0
Foxtail, Giant plant response rating (0 to 100 scale, 0 is no effect, 100 is complete control) ([6]; Preemergence, 500 g ai/ha): 60
Plant response rating, Kochia (Kochia (Kochia scoparia) [7]; [23]): 0
Kochia plant response rating (0 to 100 scale, 0 is no effect, 100 is complete control) (Kochia (Kochia scoparia) [7]; Preemergence, 500 g ai/ha): 0
Plant response rating, Pigweed [8, 23]: 0
Pigweed plant response rating (0 to 100 scale, 0 is no effect, 100 is complete control) ([8]; Preemergence, 500 g ai/ha): 0
Plant response rating, Ragweed [9, 23]: 0
Ragweed plant response rating (0 to 100 scale, 0 is no effect, 100 is complete control) ([9]; Preemergence, 500 g ai/ha): 0
Plant response rating, Barnyardgrass [10, 26]: 10
Plant response rating, Barnyardgrass [10, 25]: 80
Plant response rating, Ryegrass, Italian [11, 26]: 0
Plant response rating, Ryegrass, Italian [11, 25]: 0
Plant response rating, Foxtail, Giant [12, 26]: 0
Plant response rating, Foxtail, Giant [12, 25]: 20
Plant response rating, Kochia (Kochia (Kochia scoparia) [13]; [26]): 0
Plant response rating, Kochia (Kochia (Kochia scoparia) [13]; [25]): 20
Plant response rating, Corn (corn (Zea mays); [26]): 0
Plant response rating, Corn (corn (Zea mays); [25]): 0
Plant response rating, Blackgrass [14, 26]: 0
Plant response rating, Blackgrass [14, 25]: 0
Plant response rating, Wheat [15, 26]: 0
Plant response rating, Wheat [15, 25]: 0
Plant response rating, Pigweed [16, 26]: 0
Plant response rating, Pigweed [16, 25]: 0
Plant response rating, Galium [17, 26]: 0
Plant response rating, Galium [17, 25]: 30
Plant response rating, Ragweed [18, 26]: 0
Plant response rating, Ragweed [18, 25]: 20
